Laboratory results as given in patent US7879852B2, “Melanocortin receptor agonists” (LG Life Sciences Ltd., priority 2006, dated 2011).

Each compound was assayed against T1, human melanocortin receptor 4 (MC4R) (Homo sapiens, UniProt P32245) (assay: Luciferase assay). Conditions: agonistic activity at MC4R (Table 18); patent does not state whether luciferase or cAMP assay.
T1 construct: expressed in transfected cells; grown with 200 ug/ml Geneticin
Format: cell-based
Method: Cell lines expressing human melanocortin receptor 4 (MC4R) were dissociated from tissue culture dishes by rinsing with Ca^++, Mg^++ free DPBS, treated with 1× Trypsin/EDTA solution for 1 min at 37° C., and resuspended with DMRM (GIBCO-BRL) supplemented with 10% FBS. The cells were counted and diluted with DMEM supplemented with 10% FBS and 200 ug/ml of Geneticin to […]. 90 ul of cell suspension was plated onto each well of 96-well black and clear bottom culture plates (Costar). After the incubation for 24 h in the atmosphere of 6% CO2 at 37° C., 10 ul of NDP-MSH and test compounds diluted in DMSO were added to each well. The final DMSO concentration was 1%. After 4 h of incubation in the atmosphere of 6% CO2 at 37° C., 50 ul of Bright-Glo (Promega) was added to each well. Luciferase activity was measured by using L-Max luminometer (Molecular Device). The amount of luciferase activity induced by treatment with NDP-MSH was defined as 100% to obtain the relative efficacy of test compounds. The EC0.5 MSH was defined as the concentration of test compounds that results in half maximal activity of NDP-MSH. The EC50 was defined as the concentration of test compound that results in half maximal activity of its own.

T1 sequence (P32245 whole entry): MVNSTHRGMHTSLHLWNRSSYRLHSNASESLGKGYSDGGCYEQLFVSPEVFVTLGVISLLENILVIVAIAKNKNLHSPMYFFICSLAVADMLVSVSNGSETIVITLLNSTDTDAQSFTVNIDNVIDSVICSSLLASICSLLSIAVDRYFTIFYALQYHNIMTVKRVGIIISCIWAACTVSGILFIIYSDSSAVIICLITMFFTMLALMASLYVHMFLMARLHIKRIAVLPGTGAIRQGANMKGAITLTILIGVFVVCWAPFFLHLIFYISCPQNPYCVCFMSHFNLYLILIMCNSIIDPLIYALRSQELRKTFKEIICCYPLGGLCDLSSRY

| Structure (SMILES) | EC50 [nM] |
| --- | --- |
| CN(C)C(=O)[C@@H]1C[C@H](N(C(=O)C(C)(C)C)C2CCC(C)(C)CC2)CN1C(=O)[C@@H]1CN(C(C)(C)C)C[C@H]1c1ccc(F)cc1F [Example A1, (4S)-1-{[(3S,4R)-1-tert-butyl-4-(2,4-difluorophenyl)pyrrolidine-3-yl]carbonyl}-4-[(4,4-dimethylcyclohexyl)(2,2-dimethylpropanoyl)amino]-N,N-dimethyl-L-prolineamide] | 13 |
| CCNC(=O)[C@@H]1C[C@H](N(C(=O)[C@@H]2CCCO2)C2CCC(C)(C)CC2)CN1C(=O)[C@@H]1CN(C(C)(C)C)C[C@H]1c1ccc(Cl)cc1 [Example A3, (4S)-1-{[(3S,4R)-1-tert-butyl-4-(4-chlorophenyl)pyrrolidine-3-yl]carbonyl}-4-{(4,4-dimethylcyclohexyl)[(2S)-tetrahydrofuran-2-ylcarbonyl]amino}-N-ethyl-L-prolineamide] | 12 |
| CCN(C)C(=O)[C@@H]1C[C@H](N(C(=O)C(C)(C)CO)C2CCC(C)(C)CC2)CN1C(=O)[C@@H]1CN(C(C)(C)C)C[C@H]1c1ccc(Cl)cc1 [Example A4, (4S)-1-{[(3S,4R)-1-tert-butyl-4-(4-chlorophenyl)pyrrolidine-3-yl]carbonyl}-4-[(4,4-dimethylcyclohexyl)(3-hydroxy-2,2-dimethylpropanoyl)amino]-N-ethyl-N-methyl-L-prolineamide] | 3 |
| CN(C)C(=O)[C@@H]1C[C@H](N(C(=O)C(C)(C)C)C2CCC(F)(F)CC2)CN1C(=O)[C@@H]1CN(C(C)(C)C)C[C@H]1c1ccc(Cl)cc1 [Example A5, (4S)-1-{[(3S,4R)-1-tert-butyl-4-(4-chlorophenyl)pyrrolidine-3-yl]carbonyl}-4-[(4,4-difluorocyclohexyl)(2,2-dimethylpropanoyl)amino]-N,N-dimethyl-L-prolineamide] | 33 |
| CCNC(=O)[C@@H]1C[C@H](N(C(=O)C(C)(C)C)C2CCC(F)(F)CC2)CN1C(=O)[C@@H]1CN(C(C)(C)C)C[C@H]1c1ccc(Cl)cc1 [Example A6, (4S)-1-{[(3S,4R)-1-tert-butyl-4-(4-chlorophenyl)pyrrolidine-3-yl]carbonyl}-4-[(4,4-difluorocyclohexyl)(2,2-dimethylpropanoyl)amino]-N-ethyl-L-prolineamide] | 24 |
| CN1C[C@@H](C(=O)N2C[C@@H](N(C(=O)C(C)(C)C)[C@H]3CC[C@@H](C)CC3)C[C@H]2C(N)=O)[C@H](c2ccc(Cl)cc2)C1 [Example A7, (4S)-1-{[(3S,4R)-4-(4-Chlorophenyl)-1-methylpyrrolidine-3-yl]carbonyl}-4-[(2,2-dimethylpropanoyl)(cis-4-methylcyclohexyl)amino]-L-prolineamide] | 24 |
| CC1(C)CCC(N(C(=O)C(C)(C)C)[C@H]2CCN(C(=O)[C@@H]3CN(C(C)(C)C)C[C@H]3c3ccc(Cl)cc3)C2)CC1 [Example A9, N-[(3S,4R)-1-{[(3S,4R)-1-T-butyl-4-(4-chlorophenyl)pyrrolidine-3-yl]carbonyl}pyrrolidine-3-yl]-N-(4,4-dimethylcyclohexyl)-2,2-dimethylpropaneamide] | 45 |
| CCN(C)C(=O)[C@@H]1C[C@H](N(C(=O)C(C)(C)C)C2CCC(F)(F)CC2)CN1C(=O)[C@@H]1CN(C(C)(C)C)C[C@H]1c1ccc(Cl)cc1 [Example A75] | 79 |
| CCN(C)C(=O)[C@@H]1C[C@H](N(C(=O)[C@@H]2CCCO2)C2CCC3(CC2)CC3)CN1C(=O)[C@@H]1CN(C(C)(C)C)C[C@H]1c1ccc(Cl)cc1 [Example A90] | 30 |
| CC(=O)N(C1CCC(C)(C)CC1)[C@H]1C[C@@H](C(=O)N2CCOCC2)N(C(=O)[C@@H]2CN(C(C)(C)C)C[C@H]2c2ccc(Cl)cc2)C1 [Example A96] | 38 |
| CC1(C)CCC(N(C(=O)C(C)(C)C)[C@H]2C[C@@H](C(=O)Nc3ccccc3)N(C(=O)[C@@H]3CN(C(C)(C)C)C[C@H]3c3ccc(Cl)cc3)C2)CC1 [Example A99] | 69 |

More lines, now with the values ahead:

| EC50 [nM] | Structure (SMILES) |
| --- | --- |
| 16 | CC1(C)CCC(N(C(=O)C(C)(C)C)[C@H]2C[C@@H](CO)N(C(=O)[C@@H]3CN(C(C)(C)C)C[C@H]3c3ccc(Cl)cc3)C2)CC1 [Example B4, N-[(3S,5S)-1-{[(3S,4R)-1-tert-butyl-4-(4-chlorophenyl)pyrrolidine-3-yl]carbonyl}-5-(hydroxymethyl)pyrrolidine-3-yl]-N-(4,4-dimethylcyclohexyl)-2,2-dimethylpropaneamide] |
| 14 | CC1CCC(N(C(=O)C(C)(C)C)C2CC(C(N)=S)N(C(=O)C3CN(C(C)(C)C)CC3c3ccc(F)cc3F)C2)CC1 (centres unmarked) [Example B28] |
| 65 | CC(C)C(=O)N(C1CCC(C)(C)CC1)C1CC(C=NO)N(C(=O)C2CN(C(C)(C)C)CC2c2ccc(F)cc2F)C1 (centres unmarked) [Example B33] |
| 38 | CC1(C)CCC(N(C(=O)C(C)(C)C(N)=O)[C@H]2CCN(C(=O)C3CN(C(C)(C)C)C[C@H]3c3ccc(Cl)cc3)C2)CC1 (stereo partly drawn) [Example C1, N-[(3S)-1-{[(3S,4R)-1-tert-butyl-4-(4-chlorophenyl)pyrrolidine-3-yl]carbonyl}pyrrolidine-3-yl]-N-(4,4-dimethylcyclohexyl)-2,2-dimethylmaloneamide] |
| 11 | COCC(C)(C)C(=O)N(C1CCC(C)(C)CC1)[C@H]1CCN(C(=O)[C@@H]2CN(C(C)(C)C)C[C@H]2c2ccc(Cl)cc2)C1 [Example C2, N-[(3S)-1-{[(3S,4R)-1-tert-butyl-4-(4-chlorophenyl)pyrrolidine-3-yl]carbonyl}pyrrolidine-3-yl]-N-(4,4-dimethylcyclohexyl)-3-methoxy-2,2-dimethylpropaneamide] |
| 15 | CC1(C)CCC(N(C(=O)C(C)(C)/C=N/O)[C@H]2CCN(C(=O)[C@@H]3CN(C(C)(C)C)C[C@H]3c3ccc(Cl)cc3)C2)CC1 [Example C3, (3E)-N-[(3S)-1-{[(3S,4R)-1-tert-butyl-4-(4-chlorophenyl)pyrrolidine-3-yl]carbonyl}pyrrolidine-3-yl]-N-(4,4-dimethylcyclohexyl)-3-(hydroxyimino)-2,2-dimethylpropaneamide] |
| 6 | CC(=O)C(C)(C)C(=O)N(C1CCC(C)(C)CC1)[C@H]1CCN(C(=O)[C@@H]2CN(C(C)(C)C)C[C@H]2c2ccc(Cl)cc2)C1 [Example C5, N-[(3S)-1-{[(3S,4R)-1-tertbutyl-4-(4-chlorophenyl)pyrrolidine-3-yl]carbonyl}pyrrolidine-3-yl]-N-(4,4-dimethylcyclohexyl)-2,2-dimethyl-3-oxobutaneamide] |
| 41 | CCN(C)C(=O)[C@@H]1C[C@H](N(C(=O)C(C)(C)COC)C2CCC(F)(F)CC2)CN1C(=O)C1CN(C(C)(C)C)C[C@H]1c1ccc(Cl)cc1 (stereo partly drawn) [Example C9, N-[(3S)-1-{[(3S,4R)-1-tert-butyl-4-(4-chlorophenyl)pyrrolidine-3-yl]carbonyl}pyrrolidine-3-yl]-N-[(4,4-difluorocyclohexyl)(3-methoxy-2,2-dimethylpropanoyl)amino]-N-ethyl-N-methyl-L-prolineamide] |
| 95 | CN(C)C(=O)[C@@H]1C[C@H](N(C(=O)C(C)(C)C(N)=O)C2CCC(C)(C)CC2)CN1C(=O)C1CN(C(C)(C)C)C[C@H]1c1ccc(Cl)cc1 (stereo partly drawn) [Example C12, N-{(3S,5S)-1-{[(3S,4R)-1-tert-butyl-4-(4-chlorophenyl)pyrrolidine-3-yl]carbonyl}-5-[(dimethylamino)carbonyl]pyrrolidine-3-yl}-N-(4,4-dimethylcyclohexyl)-2,2-dimethylmaloneamide] |
